Results from US20110237541A1, “TRANSDERMALLY ADMINISTERED ALISKIREN” (priority 2008, published 2011).
Read-outs that look alike come from different tables or passages of the source.

Experiments:
[1] = Bioavailability of aliskiren after oral and transdermal administration in Sprague-Dawley rats (plasma LC-MS/MS); type: in vivo, rat; conditions: male SD rats; for AUC: Sprague-Dawley, rat, plasma
Experimental: Male Sprague-Dawley rats (300-400 g body weight) were purchased from Charles River Canada Corporation (188 Rue LaSalle, St-Constant, QC, J5A 1Y2, Canada). […] For oral dosing, aliskiren was dissolved in 0.5% methocel and administered via feeding tubes. The compound was dosed in a single bolus of 3 mg/5 ml/kg or 25 mg/5 ml/kg. For intravenous (IV) […] dosing, aliskiren was dissolved in 60% PEG 200 and administered in a single bolus at 0.5 mg/1 ml/kg. For transdermal delivery, aliskiren was dissolved in 100% DMSO, and applied (single application of 250 μl of solution) onto the shaved skin of the rat. The rat was lightly sedated under 2.5% isoflurane anesthesia, and its back was shaved over a 4 cm^2 area. The animal was returned to its cage to recover from anesthesia. Twenty-four hours later, the rat was lightly sedated under 2.5% isoflurane anesthesia, and the shaved area was disinfected with three passes of ethanol. After evaporation of the ethanol, a volume of […] of 100% DMSO only, or of the compound dissolved in a 100% DMSO solution was applied over the shaved area using a micropipette. After complete evaporation of the DMSO solution (within 5 min after application), an occlusive transparent, waterproof film (OpSite) was taped to the back of the animal over the shaved area, and a jacket was fitted on the animal. Isoflurane inhalation was stopped, and the animal individually caged. The jacket was removed four hours after application of the compound solution.
A blood sample (0.4 ml) was taken by tail or jugular vein bleed for the determination of compound levels, 1 h, 2 h, 4 h, 6 h, 8 h, 10 h and 24 h after either oral gavage or application on the skin of the compound dissolved in 100% DMSO solution. The animal was euthanized after the 24 h time point. […] The plasma was separated by centrifugation and stored at −20° C. pending analysis. Plasma samples were analyzed for aliskiren concentrations using liquid chromatography coupled to mass spectrometry (LC-MS/MS).

[2] = AUC of aliskiren after PO or TD delivery in telemetrized female dTG rats; type: in vivo, rat; conditions: for AUC(0-t): double transgenic (dTG, human renin and angiotensin), rat, read-out: AUC24 h
Experimental: The rat was lightly sedated under 2.5% isoflurane anesthesia, and its back was shaved over a 4 cm^2 area.
(§1) After complete evaporation of the DMSO solution (within 5 min after application), an occlusive transparent, waterproof film (OpSite) was taped to the back of the animal over the shaved area, and a jacket was fitted on the animal. Isoflurane inhalation was stopped, and the animal individually caged.

[3] = test system: female double transgenic (dtg) rats; assay: Mean arterial pressure by telemetry in double transgenic rats; type: in vivo, rat; conditions: for max MAP decrease: versus control group
Experimental: Female double transgenic (dtg) rats, which are transgenic for human renin and angiotensin (see, e.g., Bohlender et al., J AM SOC NEPHROL 11:2056 (2000)) were used. All animals were maintained under identical conditions and had free access to normal pelleted rat chow and water. Rats were initially treated with enalapril (1 mg/kg/day), starting 3 weeks after birth and continuing for 2 months. After approximately two weeks following cessation of enalapril treatment, the double transgenic rats are hypertensive, with mean arterial blood pressures in the range of 160-170 mmHg.
Transmitter implantation—The rats were anesthetized using isoflurane (via inhalation, 2-3%) The pressure transmitter was implanted under aseptic conditions into the peritoneal cavity with the sensing catheter placed in the descending aorta below the renal arteries pointing upstream. The transmitter was sutured to the abdominal musculature, the skin closed, and the rats were individually housed in a cage, placed on a telemetry receiver pad to enable collection of the blood pressure data during recovery from anesthesia and thereafter. The rats were singly caged for the duration of the recording of telemetry data.
Telemetry-System—Telemetry units were obtained from Data Sciences (St. Paul, Minn.). […] The tip of the catheter was filled with a viscous gel that prevents blood reflux and was coated with an antithrombogenic film. The implants (length=2.5 cm, diameter=1.2 cm) weighed 9 g and have a typical battery life of 6 months. A receiver platform (model RPC-1 from Data Sciences) connected the radio signal to digitized input that was sent to a dedicated personal computer. Arterial pressures were calibrated by using an input from an ambient-pressure reference (APR-1, Data Sciences). Systolic, mean, and diastolic blood pressures were expressed in millimeter of mercury (mmHg).
Drug administration—For oral dosing, aliskiren was dissolved in 0.5% methocel and administered via feeding tubes. The compound was dosed in a single bolus of 3 mg/5 ml/kg or 30 mg/5 ml/kg. After dosing, the rat was returned to the cage. Blood pressure data were collected up to 7 days after oral dosing.
For transdermal delivery, aliskiren was dissolved in 100% DMSO to be applied in a single application of 250 μl of solution. The rat was lightly sedated under 2.5% isoflurane anesthesia, and its back was shaved over a 4 cm^2 area. The animal was returned to the cage to recover from anesthesia. Twenty-four hours later, the rat was lightly sedated under 2.5% isoflurane anesthesia, and the shaved area disinfected with 3 passes of ethanol.
as §1, with “After evaporation of the ethanol, a volume of 250 μl of 100% DMSO only, or of the compound dissolved in a 100% DMSO solution was applied over the shaved area using a micropipette. After” for “After”, “caged. Blood pressure data was collected up to 5 days after application of the compound/DMSO solution.” for “caged.”
Hemodynamic measurements—For oral delivery, double transgenic rats with implanted pressure transmitters were dosed by oral gavage with a single bolus of vehicle (5 ml/kg) or of the test substance (30 mg/5 ml/kg) (n=6 per group).
For transdermal delivery, double transgenic rats with implanted pressure transmitters were dosed with a single application of vehicle (250 μl of 100% DMSO; n=4) or of the test substance (10 mg in 250 μl of 100% DMSO, i.e. 36 mg/kg; n=5).
The mean arterial blood pressure was continuously monitored. The effect of the test substance is expressed as maximal decrease of mean arterial pressure (MAP) in the treated group versus the control group. […]

[4] = test system: plasma renin activity (PRA); assay: Plasma renin activity (PRA) after TD delivery in double transgenic rats; type: in vivo; conditions: Rattus norvegicus, dTG rats, 4 h after delivery
Experimental: Pharmacokinetics and biomarkers—A blood sample (0.3 ml) was taken by tail bleed or jugular intravenous 4 h and 24 h after TD delivery to determine compound levels and plasma renin activity (PRA).

[5] = TD, 36 mg/kg single application

AUC ([1]; topical, TD, 2.9 mg/kg): 0.084 µM·h | AUC ([1]; topical, TD, 29 mg/kg): 0.25 µM·h | AUC ([1]; PO, 3 mg/kg): 0.0021 µM·h | AUC ([1]; PO, 25 mg/kg): 0.058 µM·h | F ([1]; PO, 3 mg/kg): 0.1% | F ([1]; PO, 25 mg/kg): 0.43% | F ([1]; TD, 2.9 mg/kg): 5.4% | F ([1]; TD, 29 mg/kg): 1.6%
SMILES: COCCCOc1cc(C[C@@H](C[C@H](N)[C@@H](O)C[C@H](C(=O)NCC(C)(C)C(N)=O)C(C)C)C(C)C)ccc1OC [aliskiren, (2S,4S,5S,7S)-5-amino-N-(2-carbamoyl-2,2-dimethylethyl)-4-hydroxy-7-{[4-methoxy-3-(3-methoxypropoxy)phenyl]methyl}-8-methyl-2-(propan-2-yl)nonanamide]
increase of AUC, transdermal versus oral delivery ([2]; at the dose used (TD 36 mg/kg vs PO 30 mg/kg)): 70 fold | AUC(0-t) ([2]; blood, topical, TD, 36 mg/kg): 1.5 µM·h | AUC(0-t) ([2]; in vivo, PO, 30 mg/kg): < 0.021 µM·h | ABC36 h ([3]; PO, 30 mg/kg single bolus): 630 mmHg * hr | duration (of MAP reduction) ([3]; PO, 30 mg/kg single bolus): 1.5 days | max MAP decrease ([3]; PO, 30 mg/kg single bolus): 40 mmHg | ABC36 h [3, 5]: 1213 mmHg * hr | duration (of MAP reduction) ([3]; TD, 36 mg/kg single application, 36 mg/kg): >3 days | max MAP decrease [3, 5]: 40 mmHg | inhibition at 36 mg/kg [4]: 97%
